{
  "source": "patent EP0200607A1",
  "about": "“Surfactant chlorhexidine salts and compositions” (PIERRE FABRE COSMETIQUE, priority 1985, dated 1986)",
  "key": {"[1]": {"test_system": "Pseudomonas aeruginosa A 22", "assay": "Antiseptic activity by dilution in liquid medium (MIC and MBC), with anionic surfactants", "format": "cell-based", "conditions": "Pseudomonas aeruginosa A 22, 10^6 germes/ml", "from_the_text": "de dilutions en milieu liquide, selon Peterson, Lance R., Denny, Aiken E., Gerding, Dale N. and Hall, Wendell H. :\"determination of tolerance to antibiotic bactericidal on activity on Kivby-Baver susceptibility plates Am.J.Clin.Pathol. 74 : 645-650,1980.\nLe but de la méthode est de déterminer la plus petite quantité d'un produit X qui exerce sur 10^6 cellules d'une flore bactérienne donnée une activité antiseptique de type bactériostatique ou bactéricide.\nLa méthode de dilution en milieu liquide permet de déterminer la CMI (concentration minimale inhibitrice-bacté- riostase) et la CMB (concentration minimale léthale-bactéricidie).\n• . pipettes de 1 ml graduées au 1/100 en polystyrène cristal stériles, . pipettes Pasteur stériles, • . flacons en verre stériles de 30 ml, 100 ml, • . tubes à essai en verre PYREX stériles 65 x 13 mm, 160 x 16 mm, 25 x 200 mm et 18 x 180 mm, • . boîtes de Pétri, polystyrène cristal- stériles de 90 mm de diamètre, • . lumétron, colorimètre réf.401, • les milieux de culture liquides et gélosés sont adaptés à la croissance de l'espèce de microorganisme en test Pseudomonas aeruginosa. Un témoin de fertilité des milieux liquides et gélosés est réalisé à chaque expérimentation.\nLes différents produits testés sont des solutions aqueuses d'alkyl éthoxycarboxylate de chlorhexidine (3%) et contenant un pourcentage variable de tensioactifs anioniques. Les solutions mères sont des dilutions au 1/10e des solutions précédentes.\nPseudomonas aeruginosa est ensemencé en stries sur une pente de gélose Tryptone Soya (CM 131 OXOID). On incube de 18 à 24 Heures à 32-35°C.\nPour le Pseudomonas aeruginosa, une transmission de 90 % représente une valeur de 2-10^8 germes/ml donc une dilution au 1/100e est nécessaire.\nOn prépare sur un portoir une série de tubes à hémolyse 65 x 13 mm stériles.\nChaque tube reçoit 1 ml de milieu de culture liquide dont la composition est adaptée à la croissance du germe (bouillon BN pour Pseudomonas aéruginosa).\nLe tube reçoit 1 ml de la solution mère du produit à analyser. On homogénéise puis effectue des passages successifs au 1/2 jusqu'au dernier tube. Le volume dans tous les tubes est alors de 1 ml.\nToutes les dilutions sont ensemencées avec 1 ml de milieu de culture titrant […] par ml. Dans chaque tube on a alors 1.10^6 germes par ml.\nUn tube sans antiseptique permet d'effectuer un dénombrement des microorganismes effectivement introduits dans le test et permet de s'assurer de la vitalité de la souche.\nDénombrement par la méthode de dilution-incorporation et incubation à l'étuve pendant 48 heures à 37°C.\nLa concentration minimale inhibitrice est la plus petite quantité de produit qui empêche le développement microbien (jugé à l'oeil) ;elle est exprimée en microgramme de chlorhexidine base par millilitre. […]"}, "[2]": {"assay": "Acute toxicity, intraperitoneal LD50", "format": "in vivo", "from_the_text": "(§1) La toxicité de ce nouveau sel de CHX a été vérifiée comparativement au tensioactrf sous forme acide de départ, au tensioactif neutralisé par l'ion sodium, à la CHX base et à l'association tensioactif neutralisé par l'ion sodium + CHX base, car il est bien connu que la toxicité d'une molécule peut être potentialisée par la présence d'un tensioactif.\n(§2) Deux tests ont été utilisés : • 1- l'évaluation de la DL 50 par voie orale, • 2- l'évaluation de la DL 50 par voie intra-péritonéale."}, "[3]": {"assay": "Acute toxicity, oral LD50", "format": "in vivo", "from_the_text": "as §1, §2"}, "Solubility (qualitative)": {"assay": "Solubility (qualitative)", "conditions": "water"}, "[4]": {"parameters": "species or system lapin", "conditions": "in vivo", "from_the_text": ". tolérance cutanée lapin :"}, "[5]": {"assay": "Foaming power (10 inversions of a stoppered cylinder)", "format": "physicochemical", "conditions": "50 ml of a 10 % active matter solution, 100 ml cylinder, 23°C", "description": "_Le_pouvoir moussant de l'acide éthoxycarboxylique et de l'éthoxycarboxylate de CHX a été vérifié, et ce comparativement.\nA cet effet, on prépare une solution de tensioactif à 10% de matière active. On prélève 50 ml de cette solution que l'on introduit dans une éprouvette de 100 ml (diamètre intérieur 26 mm et hauteur 235 mm). On bouche hermétiquement cette éprouvette et on la soumet à 10 retournements successifs pour provoquer la formation de mousse. Cette manipulation se fait à 23°C (température de la solution)."}, "[6]": {"parameters": "species or system cobaye", "conditions": "in vivo", "from_the_text": "On peut penser que cette différence de pouvoir moussant est apportée par le solvant propylèneglycol […] Tolérance : On s'est contenté de vérifier la bonne tolérance cutanée et oculaire du tensioactif acide éthoxycarboxylique et du nouveau sel de CHX de cet exemple, pour bien démontrer la parfaite inocuité de ce nouveau produit.\n. tolérance cutanée cobaye :\nOn voit d'après ces résultats que cette tolérance est meilleure sur ce test pour le nouveau sel de CHX que pour l'acide éthoxycarboxylique. La différence d'épaisseur de pli de peau mesuré le 4ème jour d'application quotidienne est de 0,23 contre 1,2 mm, l'érythème de 1,4 contre 4."}, "[7]": {"test_system": "Escherichia coli ATCC 10536", "assay": "Antibacterial properties (Tableau I), Escherichia coli", "format": "cell-based", "from_the_text": "(§3) Des expérimentations ont été conduites afin de vérifier si ce nouveau sel de CHX possédait une bonne activité antiseptique comparativement au digluconate de CHX, sel de CHX des plus connus et largement utilisé et ce comparativement à l'acide AEC, ce dernier pouvant avoir par lui-même des propriétés antiseptiques.\n(§4) L'activité de ces trois produits a été testée sur quatre germes […] et il a été constaté que non seulement on obtenait une activité voisine de celle du digluconate de CHX, mais que de plus, cette activité était plus importante dans trois cas (voir tableau I)."}, "Staphylo-coque aureus": {"test_system": "Staphylo-coque aureus", "assay": "Antibacterial properties (Tableau I), Staphylococcus aureus", "format": "cell-based", "from_the_text": "as §3, §4"}, "[8]": {"test_system": "Pseudomonas aeruginosa A 22", "assay": "Antibacterial properties (Tableau I), Pseudomonas aeruginosa", "format": "cell-based", "from_the_text": "as §3, §4"}, "Candida albicans": {"test_system": "Candida albicans", "assay": "Antibacterial properties (Tableau I), Candida albicans", "format": "cell-based", "from_the_text": "as §3, §4"}, "[9]": {"conditions": "in vivo"}},
  "data": [
    {"compound": "N=C(NCCCCCCNC(=N)NC(=N)Nc1ccc(Cl)cc1)NC(=N)Nc1ccc(Cl)cc1", "note": "[Digluconate de CHX, Digluconate de chlorhexidine]", "values": [
      {"measurement": "MIC", "setting": "[1]; A22, aqueous solutions with 3% alkyl éthoxycarboxylate de chlorhexidine, read-out: CMI", "result": 8.75, "unit": "µg/mL"},
      {"measurement": "MBC", "setting": "[1]; A22, sub-culture on neutralising medium, read-out: CMB", "result": 8.75, "unit": "µg/mL"}
    ]},
    {"compound": "[H]/N=C(\\N/C(=N/[H])NCCCCCCNC(=N)NC(=N)Nc1ccc(Cl)cc1)Nc1ccc(Cl)cc1", "note": "[chlorhexidine base, 1,6-di-(p-chlorophényl-biguanido) hexane]", "values": [
      {"measurement": "LD50", "setting": "[2]; in vivo, ip, read-out: DL 50 voie intrapérito-néale", "result": "47 to 100", "unit": "mg/kg"},
      {"measurement": "DL 50 voie orale", "setting": "[3]", "result": "pas de mortalité"},
      {"measurement": "solubilité dans l'eau", "setting": "Solubility (qualitative)", "result": "insoluble dans l'eau"}
    ]},
    {"compound": "Alkyl éthoxycarboxy-late de sodium", "values": [
      {"measurement": "DL 50 voie orale", "setting": "[3]", "result": "7,5 g/kg"}
    ]},
    {"compound": "Alkyl éthoxycarboxylate de chlorhexidine [AEC de CHX]", "values": [
      {"measurement": "indice d'irritation primaire", "setting": "[4]", "result": "0,25"},
      {"measurement": "CMI", "setting": "[1]; aqueous solutions with 3% alkyl éthoxycarboxylate de chlorhexidine", "result": "8 microgramme de chlorhexidine base par millilitre"},
      {"measurement": "CMB", "setting": "[1]; sub-culture on neutralising medium", "result": "8 microgramme de chlorhexidine base par millilitre"},
      {"measurement": "Pouvoir moussant (mousse)", "setting": "[5]", "result": 16, "unit": "mL"},
      {"measurement": "différence d'épaisseur de pli de peau", "setting": "[6]", "result": "0,23 mm"},
      {"measurement": "érythème", "setting": "[6]", "result": "1,4"}
    ]},
    {"compound": "alkyl éthoxycarboxylique acide [AEC acide]", "values": [
      {"measurement": "Propriétés antibactériennes", "setting": "[7]", "result": "12,5 mg/ml"},
      {"measurement": "indice d'irritation primaire", "setting": "[4]", "result": "0,75"},
      {"measurement": "Propriétés antibactériennes", "setting": "Staphylo-coque aureus", "result": "1,56 mg/ml"},
      {"measurement": "DL 50 voie intrapérito-néale", "setting": "[2]", "result": "0,5 g/kg"},
      {"measurement": "Propriétés antibactériennes", "setting": "[8]", "result": "6,2 mg/ml"},
      {"measurement": "Propriétés antibactériennes", "setting": "Candida albicans", "result": 50, "unit": "mg/mL"},
      {"measurement": "tolérance oculaire", "setting": "[9]", "result": "la mieux tolérée"},
      {"measurement": "Pouvoir moussant (mousse)", "setting": "[5]", "result": 26, "unit": "mL"},
      {"measurement": "différence d'épaisseur de pli de peau", "setting": "[6]", "result": "1,2 mm"},
      {"measurement": "érythème", "setting": "[6]", "result": 4}
    ]}
  ]
}
